The values that follow come from PMC12263422, “Cryo-EM structure of the human THIK-1 K2P K^+ channel reveals a lower Y gate regulated by lipids and anesthetics” (Nature Structural & Molecular Biology, 2025).

Values joined by “and” are separate entries in the source; they are usually repeats but may differ in a detail not shown here. Equal entries are not always repeated.

The subject of assay [1] is WT THIK-1 (coexpressed with hM1R). Briefly: Whole-cell currents in transiently transfected HEK-293 cells, GqPCR (hM1-R) mediated activation by Oxo-M, WT THIK-1. The assay is classed as cell-based, human. Conditions: for activation by Oxo-M: 10 μM Oxo-M; for Maximal currents with Oxo-M: THIK-1 WT + M1R. How it is done:
(§1) Two-electrode voltage–clamp (TEVC) studies were performed in Xenopus oocytes. All animal use conformed to the Guide for the Care and Use of Laboratory Animals (NIH Publication 85–23), and all experiments using Xenopus toads were approved by the local ethics panels. Oocytes were stored at 17 °C in ND96 recording solution composed of (in mM): 96 NaCl, 2 KCl, 1.8 CaCl2, 1 MgCl2, 5 HEPES (pH 7.5 adjusted with NaOH and HCl), supplemented with Na-pyruvate (275 mg L^–1), theophylline (90 mg L^–1) and gentamicin (50 mg L^–1). Oocytes were injected with 1 ng mRNA for WT or mutant channels, and were incubated for 24–48 h at 17 °C. Two-electrode voltage clamp recordings were then performed as previously described[42],[43]. For macroscopic patch–clamp measurements, oocytes were obtained as described above incubated at 17 °C in a solution containing (mM): 54 NaCl, 30 KCl, 2.4 NaHCO3, 0.82 MgSO4 ×7 H2O, 0.41 CaCl2, 0.33 Ca(NO3)2 ×4 H2O and 7.5 TRIS (pH 7.4 adjusted with NaOH and HCl) for 1–4 days before use. Excised patch recordings in inside-out configuration conditions were performed at room temperature. Patch pipettes were made from thick-walled borosilicate glass GB 200TF-8P (Science Products), had resistances of 0.2–0.5 MΩ (tip diameter, 10–25 µm) and filled with a pipette solution (in mM): 120 KCl, 10 HEPES and 3.6 CaCl2 (pH 7.4 adjusted with KOH and HCl). Intracellular bath solutions and compounds were applied to the cytoplasmic side of excised patches for the various K^+ channels through a gravity flow multi-barrel pipette system. The intracellular solution had the following composition (in mM): 120 KCl, 10 HEPES, 2 EGTA and 1 pyrophosphate (pH adjusted with KOH and HCl). Currents were recorded with an EPC10 amplifier (HEKA Electronics) and sampled at 10 kHz or higher, with filtering set to 3 kHz (–3 dB) or higher, as appropriate for sampling rate. For measurements of GPCR activation, whole-cell currents were recorded for THIK-1 in transiently transfected HEK-293 cells. Cells were stimulated by a ramp protocol between −100 and +60 mV (holding potential, −80 mV). The pipette solution was composed of (in mM): 140 KCl, 2 MgCl2, 1 CaCl2, 2.5 EGTA and 10 HEPES (pH 7.3 adjusted with KOH and HCl). The extracellular bath solution had the following composition (in mM): 135 NaCl, 5 KCl, 2 MgCl2, 2 CaCl2, 10 glucose and 10 HEPES pH (pH 7.3 adjusted with NaOH and HCl). Oxotremorine M (Oxo-M) was added to extracellular bath solution to obtain the final concentration. Single-channel currents were recorded with an Axopatch 200B amplifier through a Digidata 1440A digitizer (Molecular Devices). Data were filtered at 2 kHz and recorded at a 200-kHz sampling rate with the program Clampex (Molecular Devices). […]
A general note: Real-time PCR tracks product formation cycle by cycle.

Assay [2] deals with THIK-1-Y273A (coexpressed with hM1R). Kind of assay: Whole-cell currents in transiently transfected HEK-293 cells, GqPCR (hM1-R) mediated activation by Oxo-M, THIK-1-Y273A. The assay is classed as cell-based, human. Conditions: for Maximal currents with Oxo-M: THIK-1 Y273A + M1R. The procedure: as §1, with “The intracellular solution had the following composition (in mM): 120 KCl, 10 HEPES, 2 EGTA and 1 pyrophosphate (pH adjusted with KOH and HCl).” left out, “Cells were stimulated by a ramp protocol between −100 and +60 mV (holding potential, −80 mV). The pipette solution was composed of (in mM): 140 KCl, 2 MgCl2, 1 CaCl2, 2.5 EGTA and 10 HEPES (pH 7.3 adjusted with KOH and HCl). The extracellular bath solution had the following composition (in mM): 135 NaCl, 5 KCl, 2 MgCl2, 2 CaCl2, 10 glucose and 10 HEPES pH (pH 7.3 adjusted with NaOH and HCl). Oxotremorine M (Oxo-M) was added to extracellular bath solution to obtain the final concentration.” left out

Another assay has as its target T1, WT THIK-1 (without M1R) (Homo sapiens, UniProt Q9HB14).
T1 construct: expressed in transfected cells; host or cells: HEK-293
Kind of assay: Whole-cell currents in HEK-293 cells with Oxo-M, WT THIK-1 without M1R. The assay is classed as cell-based. As to conditions: THIK-1 WT (no M1R). An excerpt:
Supplement 41594_2025_1497_MOESM2_ESM.xlsx, sheet "ExtData_Fig_S2e" | column: Maximal currents with Oxo-M (%); WT

T1 sequence (Q9HB14 whole entry): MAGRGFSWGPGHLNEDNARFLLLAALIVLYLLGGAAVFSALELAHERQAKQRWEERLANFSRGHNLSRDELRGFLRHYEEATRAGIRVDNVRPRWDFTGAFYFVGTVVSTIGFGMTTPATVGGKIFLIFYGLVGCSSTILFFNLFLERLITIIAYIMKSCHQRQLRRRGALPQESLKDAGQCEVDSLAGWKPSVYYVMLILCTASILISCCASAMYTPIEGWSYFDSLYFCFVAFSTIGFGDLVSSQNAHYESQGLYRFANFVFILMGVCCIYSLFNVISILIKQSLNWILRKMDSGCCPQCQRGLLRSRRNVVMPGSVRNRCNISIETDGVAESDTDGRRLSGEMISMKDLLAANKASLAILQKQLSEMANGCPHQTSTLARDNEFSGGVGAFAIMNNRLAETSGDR

Turning to `C[N+](C)(C)CC#CCN1CCCC1=O` [Oxo-M, Oxotremorine M], the “activation by Oxo-M” value is listed as ~ 50% in assay [1] (WT THIK-1 with hM1-R); “no activation” in assay [1] (in the absence of hM1-R); “no activation” in assay [2] (10 μM Oxo-M, THIK-1-Y273A). Also, the “Maximal currents with Oxo-M” value is 172.080% and 208.230% and 131.370% and 127.470% and 125.270% and 149.760% and 113.980% and 121.900% and 146.330% and 151.430% and 123.170% and 131.250% and 181.580% and 173.780% and 155.620% and 228.290% and 290.820% and 139.180% and 66.330% and 107.180% and 88.700% in assay [1] (individual recordings); 149.22% in assay [1] (mean); 93.100% and 97.920% and 94.800% and 93.870% and 99.320% and 100.290% in assay [2] (individual recordings); 96.55% in assay [2] (mean); 87.670% and 72.140% and 84.570% and 69.740% and 73.820% and 88.800% and 69.120% and 93.710% and 101.590% and 90.590% and 96.720% and 154.730% and 88.450% on WT THIK-1 (without M1R) (individual recordings); 90.13% on WT THIK-1 (without M1R) (mean).
